Assay results reported in patent publication US9133143B2, “(3-fluoro-2-hydroxy)propyl-functionalized aryl derivatives or pharmaceutically acceptable salts thereof, method for preparing same, and pharmaceutical composition containing same as active ingredient for the diagnosis or treatment of neurodegenerative brain diseases” (FUTURECHEM CO., LTD., priority 2009, dated 2015).
pKi: −log10 of the molar value. One block for each compound: values may come before it.

Experiments:
[1] = biological target: T1, β-Amyloid (Aβ1-42) fibrils (Homo sapiens, UniProt P05067); experiment: Test of inhibitory binding ability against [125I]TZDM on β-amyloid fibrils; details: Aβ1-42 fibrils 10 nM, [125I]TZDM 0.05 nM, room temperature 3 hours; read-out: Ki, binding affinity (Ki) for [125I]TZDM (48)
T1 construct: β-Amyloid peptide (Aβ1-42, Bachem, 1 mg); purchased Bachem
T1 sequence (P05067 672-713 limits assumed): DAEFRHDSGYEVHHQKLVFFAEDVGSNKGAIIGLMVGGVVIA
Description: β-Amyloid peptide (Aβ1-42, Bachem, 1 mg) was completely dissolved in DMSO (1 mL) and then mixed well after adding phosphate buffer (pH 7.4, 9 mL). β-Amyloid fibrils produced by incubating at 37° C. for 60 minutes were distributed into e-tubes, 0.5 mL each, and stored in a refrigerator at −80° C.
10% ethanol (0.850 mL) was placed in a 12 mm×75 mm borosilicate test tube. […] Then, after adding [^125I]TZDM (48) (50 μL, final reaction concentration=0.05 nM), the resulting mixture was subjected to incubation at room temperature for 3 hours. 3 Hours later, after separating [^125I]TZDM (48) bound to the β-amyloid (Aβ1-42) fibrils from unbound [^125I]TZDM (48) using a cell harvester, gamma radiation was measured using a gamma counter. 2 μM ThT was used for testing of non-specific binding.

[2] = Test of in vivo distribution of F-18-labeled compounds (concentration in brain, passage through blood-brain barrier); set-up: Concentration in brain of rats, At 2 minutes ([2 min]) / Concentration in brain of rats, At 30 minutes ([30 min]): unit not given here; details: SD rats; for Concentration in brain of rats, Highest ([peak]) / Time of highest concentration in brain (in parentheses): F-18-labeled compound; for Initial brain inflow: at 2 minutes; for [peak]/[30 min] / [2 min]/[30 min]: ratio of brain concentrations; for [2 min]/[30 min]: value smaller than 1 = cannot pass the blood-brain barrier well
Description: In order to test the passing of the aryl derivative with the (3-fluoro-2-hydroxy)propyl group according to the present disclosure through the blood-brain barrier, the following experiment was carried out.
After administering the F-18-labeled aryl derivatives prepared in Examples 10 to 13 or 2-(4-(N-monomethyl)aminophenyl)-6-(3-[^18F]fluoropropoxy)benzothiophene with no hydroxyl group, as control, to SD rats, peak concentration in the brain and concentrations at 2 minutes ([2 min]) and 30 minutes ([30 min]) were measured and pharmacokinetic properties were quantitatively compared.
A larger value indicates easier passage through the blood-brain barrier.

pKi [1]: 9.38
Structure (SMILES): CNc1ccc(-c2cc3ccc(OCC(O)CF)cc3s2)nn1 (racemic) [Example 5, 2-[3-(N-monomethyl)aminopyridazin-6-yl]-6-[(R/S)-3-fluoro-2-hydroxypropoxy]benzothiophene]

pKi [1]: 9.80
Structure (SMILES): CNc1ccc(-c2nc3ccc(OC[C@H](O)CF)cc3s2)cn1 [Example 8, 2-[2-(N-monomethyl)aminopyridin-5-yl]-6-[(S)-3-fluoro-2-hydroxypropoxy]benzothiazole]

Structure (SMILES): CNc1ccc(-c2cc3ccc(OCC(O)C[18F])cc3s2)cn1 (racemic) [Example 10, 2-[2-(N-monomethyl)aminopyridin-5-yl]-6-[(R/S)-3-[^18F]fluoro-2-hydroxypropoxy]benzothiophene]
[2 min]/[30 min] value relative to that of the compound with no hydroxyl group at the propyl residue [2]: 8.1 times
Concentration in brain of rats, At 2 minutes ([2 min]) [2]: 16.5
Concentration in brain of rats, At 30 minutes ([30 min]) [2]: 2.2
Concentration in brain of rats, Highest ([peak]) [2]: 22.4
Time of highest concentration in brain (in parentheses) [2]: 30 s
Initial brain inflow [2]: very rapid
[peak]/[30 min] [2]: 10.3
[2 min]/[30 min] [2]: 7.5

pKi [1]: 9.31
Structure (SMILES): CNc1ccc(-c2cc3ccc(OCC(O)CF)cc3s2)cn1 (racemic) [Example 2, 2-[2-(N-monomethyl)aminopyridin-5-yl]-6-[(R/S)-3-fluoro-2-hydroxypropoxy]benzothiophene]

Structure (SMILES): CNc1cccc(-c2nc3ccc(OCC(O)C[18F])cc3s2)c1 (racemic) [Example 12, 2-[3-(N-monomethyl)aminophenyl]-6-[(R/S)-3-[^18F]fluoro-2-hydroxypropoxy]benzothiazole]
Concentration in brain of rats, At 2 minutes ([2 min]) [2]: 15.7
Concentration in brain of rats, At 30 minutes ([30 min]) [2]: 2.9
Concentration in brain of rats, Highest ([peak]) [2]: 22.6
Time of highest concentration in brain (in parentheses) [2]: 25 s
[peak]/[30 min] [2]: 7.7

pKi [1]: 8.97
Structure (SMILES): CNc1ccc(-c2nc3ccc(OCC(O)CF)cc3s2)cc1 (racemic) [Example 6, 2-[4-(N-monomethyl)aminophenyl]-6-[(R/S)-3-fluoro-2-hydroxypropoxy]benzothiazole]

Structure (SMILES): CNc1ccc(-c2nc3ccc(OCC(O)C[18F])cc3s2)cn1 (racemic) [Example 13, 2-[2-(N-monomethyl)aminopyridin-5-yl]-6-[(R/S)-3-[^18F]fluoro-2-hydroxypropoxy]benzothiazole]
Concentration in brain of rats, At 2 minutes ([2 min]) [2]: 6.5
Concentration in brain of rats, At 30 minutes ([30 min]) [2]: 1.0
Concentration in brain of rats, Highest ([peak]) [2]: 11.1
Time of highest concentration in brain (in parentheses) [2]: 45 s
[peak]/[30 min] [2]: 10.8

pKi [1]: 8.92
Structure (SMILES): CNc1ccc(-c2cc3ccc(OCC(O)CF)cc3s2)cc1 (racemic) [Example 1, 2-[4-(N-monomethyl)aminophenyl]-6-[(R/S)-3-fluoro-2-hydroxypropoxy]benzothiophene]

Structure (SMILES): CNc1ccc(-c2cc3ccc(OCCC[18F])cc3s2)cc1 [Control, 2-(4-(N-monomethyl)aminophenyl)-6-(3-[^18F]fluoropropoxy)benzothiophene, reference compound]
Concentration in brain of rats, At 2 minutes ([2 min]) [2]: 2.02
Concentration in brain of rats, At 30 minutes ([30 min]) [2]: 2.18
Initial brain inflow [2]: very low
[2 min]/[30 min] [2]: 0.93
[2 min]/[30 min] ([2]; listed as 2-[4-(N-monomethyl)aminophenyl]-6-β-[^18F]fluoropropoxy)benzothiophene): less than or equal to 1
